Several values for one entry are separate records, joined by “and”; a condition that tells them apart may be missing. Equal entries are not always repeated.

This experiment has as its target T1, human Branched Chain Amino Acid Aminotransferase cytosolic form (hBCATc) (Homo sapiens, UniProt P54687).
T1 construct: inferred from purification on a Ni-charged chelating column with imidazole elution; made in house; host or cells: E. coli BL21(DE3)
T1 sequence (P54687 1-386): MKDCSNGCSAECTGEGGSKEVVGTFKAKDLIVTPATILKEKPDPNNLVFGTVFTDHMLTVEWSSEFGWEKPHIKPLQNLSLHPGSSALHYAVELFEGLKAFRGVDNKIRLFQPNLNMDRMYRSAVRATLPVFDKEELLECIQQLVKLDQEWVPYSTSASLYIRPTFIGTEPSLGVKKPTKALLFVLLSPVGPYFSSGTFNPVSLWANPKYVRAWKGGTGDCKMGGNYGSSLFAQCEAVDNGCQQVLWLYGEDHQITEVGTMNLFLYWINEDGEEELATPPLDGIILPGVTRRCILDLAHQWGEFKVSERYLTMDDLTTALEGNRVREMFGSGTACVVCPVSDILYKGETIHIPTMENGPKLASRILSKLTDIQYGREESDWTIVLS
In words: In vitro coupled enzyme assay, hBCATc. Conditions: 37° C.; for IC50: 25 mM phosphate buffer pH 7.8, coupled glutamate dehydrogenase assay, read-out: hBCATc I50; for inhibition at 20 µM: read-out: hBCATc Inhibit % @ 20 μM. The class given is biochemical. As to the method:
In vitro enzyme assay—human Branched Chain Amino Acid Aminotransferase cytosolic form (hBCATc) and mitochondrial form (hBCATm) were assayed at 37° C. in 25 mM phosphate buffer pH 7.8. In addition, 2 mM DTT and 12.5 mM EDTA were added to the assay mixture. A coupling enzyme assay was used to monitor the production of glutamate. The formation of NADH from NAD+at […] was followed on a 96-well plate Molecular Devices plate reader. The following components were used in this coupled assay: 4 mM ADP, 1 mM NAD+, 750 μM L-Leucine, 500 μM (α-ketoglutarate, 10 μM pyridoxal phosphate, 1 unit glutamate dehydrogenase, and 1.25 μg of the appropriate BCAT enzyme. Inhibitions by compounds were assayed by adding various concentrations to this coupled assay procedure as a DMSO stock up to a 5% v/v DMSO/buffer ratio. Data is shown in Table 1.
Enzyme Preparation—humanBCATc was expressed in BL21(DE3) cells. A growing culture of cells was induced with 1 mM IPTG at room temperature overnight. These cells were harvested by centrifugation at 10,000 g for 20 minutes. The supernatant was discarded, and the cells were stored at −80° C. until needed. The protein was purified by the following method. The cell paste was resuspended in extraction buffer (0.1 M phosphate, pH 8.0, with 0.01 M Tris-HCL and 5 mM TCEP and then lysed on a French Press at 1000 psi. The lysate was centrifuged at 10,000 g for 15 minutes, and the pellet was discarded. The supernatant was loaded onto a Hitrap Chelating column previously charged with 0.1 M NiSO4 and washed with 3 to 4 column volumes of extraction buffer. The column was then washed with 0.01 Tris, pH 7.5, 10% glycerol, 150 mM NaCl, 5 mM TCEP for two column volumes. The column was then further washed with two column volumes of 0.1 M phosphate, pH 6.0, 0.01 M Tris, 10% glycerol and 750 mM NaCl. Finally, the column was washed with two column volumes of the same buffer plus 50 mM imidazole. The BCAT enzyme was then eluted with the same buffer but with 350 mM imidazole. The eluant was then dialyzed overnight against 10 mM phosphate buffer pH 8.0, 10% glycerol, and 5 mM TCEP. The dialyzed protein was then loaded onto a Q-sepharose column and eluted using a salt gradient. Active fractions were collected and further purified on a Superose-12 column to yield pure BCAT protein.

Setting [1] is: @ 20 μM compound, pH 7.8 coupled assay.

As to `O=C(/C=C1\SC(Nc2c(Cl)cccc2Cl)=NC1=O)NCCOCCO` [Example 26, 2-[2-(2,6-Dichloro-phenylamino)-4-oxo-4H-thiazol-5-ylidene]-N-[2-(2-hydroxy-ethoxy)-ethyl]-acetamide], the IC50 worked out at 56.3 µM.
The same measure, in the same setting: for `COCCNC(=O)/C=C1\SC(Nc2c(Cl)cccc2Cl)=NC1=O` [Example 16, 2-[2-(2,6-Dichloro-phenylamino)-4-oxo-4H-thiazol-5-ylidene]-N-(2-methoxy-ethyl)-acetamide] the value was 82.7 µM; for `CCNC(=O)/C=C1\SC(Nc2c(Cl)cccc2Cl)=NC1=O` [Example 7, [2-(2,6-Dichloro-phenylamino)-4-oxo-4H-thiazol-5-ylidene]-N-ethyl-acetamide], 13.1 µM and 3.15 µM.
Consider `O=C(/C=C1\SC(Nc2c(Cl)cccc2Cl)=NC1=O)NC1CCCCCC1` [Example 39, N-Cycloheptyl-2-[2-(2,6-dichloro-phenylamino)-4-oxo-4H-thiazol-5-ylidene]-acetamide], for which the inhibition at 20 µM under setting [1] is 39%.
On to `O=C1N=C(Nc2c(Cl)cccc2Cl)S/C1=C\C(=O)N1CCCC1` [Example 21, 2-(2,6-Dichloro-phenylamino)-5-(2-oxo-2-pyrrolidin-1-yl-ethylidene)-thiazol-4-one], for which the IC50 was 13.8 µM.
For the compound `O=C(/C=C1\SC(Nc2c(Cl)cccc2Cl)=NC1=O)NC1CCCC1` [Example 30, N-Cyclopentyl-2-[2-(2,6-dichloro-phenylamino)-4-oxo-4H-thiazol-5-ylidene]-acetamide], the IC50 was determined as 16.6 µM.
For the compound `CCN1CCN(C(=O)/C=C2\SC(Nc3c(Cl)cccc3Cl)=NC2=O)CC1` [Example 18, 2-(2,6-Dichloro-phenylamino)-5-[2-(4-ethyl-piperazin-1-yl)-2-oxo-ethylidene)-thiazol-4-one], the IC50 stood at 64.1 µM.
Turning to `CCOC(=O)/C=C1\SC(Nc2c(Cl)cccc2Cl)=NC1=O` [Example 2, [2-(2,6-Dichloro-phenylamino)-4-oxo-4H-thiazol-5-ylidene]-acetic Acid Ethyl Ester], the IC50 was 52.5 µM.
Take `CONC(=O)/C=C1\SC(Nc2c(Cl)cccc2Cl)=NC1=O` [Example 10, [2-(2,6-Dichloro-phenylamino)-4-oxo-4H-thiazol-5-ylidene]-N-methoxy-acetamide]: the IC50 is 31.7 µM.
Take `COC(CNC(=O)/C=C1\SC(Nc2c(Cl)cccc2Cl)=NC1=O)OC` [Example 23, 2-[2-(2,6-Dichloro-phenylamino)-4-oxo-4H-thiazol-5-ylidene]-N-(2,2-dimethoxy-ethyl)-acetamide]: the IC50 was determined as 39.8 µM.
`COC(=O)/C=C1\SC(Nc2ccccc2C)=NC1=O` [Example 4, [2-(2-Methyl-phenylamino)-4-oxo-4H-thiazol-5-ylidene]-acetic Acid Methyl Ester]: the IC50 is 43.9 µM and 29.6 µM.
Turning to `O=C1N=C(Nc2c(Cl)cccc2Cl)S/C1=C\C(=O)N1CCCCC1` [Example 17, 2-(2,6-Dichloro-phenylamino)-5-(2-oxo-2-piperidine-1-yl-ethylidene)-thiazol-4-one], the IC50 came to 12.8 µM.
Regarding `CC(C)(C)OC(=O)/C=C1\SC(Nc2c(Cl)cccc2Cl)=NC1=O` [Example 3, [2-(2,6-Dichloro-phenylamino)-4-oxo-4H-thiazol-5-ylidene]-acetic Acid Tert-butyl Ester], the IC50 is 68.6 µM and 36.9 µM.
In the case of `O=C(/C=C1\SC(Nc2c(Cl)cccc2Cl)=NC1=O)NCCOc1ccccc1` [Example 33, 2-[2-(2,6-Dichloro-phenylamino)-4-oxo-4H-thiazol-5-ylidene]-N-(2-phenoxy-ethyl)-acetamide], the IC50 was 40.4 µM.
For the compound `O=C(/C=C1\SC(Nc2c(Cl)cccc2Cl)=NC1=O)NC1CCCCC1` [Example 22, N-Cyclohexyl-2-[2-(2,6-dichloro-phenylamino)-4-oxo-4H-thiazol-5-ylidene]-acetamide], the IC50 came out at 22.6 µM.
In the case of `CC1CC(C)CN(C(=O)/C=C2\SC(Nc3c(Cl)cccc3Cl)=NC2=O)C1` (stereo not drawn) [Example 24, 2-(2,6-Dichloro-phenylamino)-5-[2-(3,5-dimethyl-piperidin-1-yl)-2-oxo-ethylidene)-thiazol-4-one], the IC50 was 8.97 µM.
With `CC(C)CC(C)NC(=O)/C=C1\SC(Nc2c(Cl)cccc2Cl)=NC1=O` (stereo not drawn) [Example 38, 2-[2-(2,6-Dichloro-phenylamino)-4-oxo-4H-thiazol-5-ylidene]-N-(1 ,3-dimethyl-butyl)-acetamide], the inhibition at 20 µM under setting [1] worked out at 33%.
For `O=C(/C=C1\SC(Nc2c(Cl)cccc2Cl)=NC1=O)NCC(O)CO` (stereo not drawn) [Example 28, 2-[2-(2,6-Dichloro-phenylamino)-4-oxo-4H-thiazol-5-ylidene]-N-(2,3-dihydroxy-propyl)-acetamide], the IC50 was 66.9 µM.
On to `O=C(/C=C1\SC(Nc2c(Cl)cccc2Cl)=NC1=O)NCc1ccc(Cl)cc1` [Example 35, N-(4-Chloro-benzyl)-2-[2-(2,6-dichloro-phenylamino)-4-oxo-4H-thiazol-5-ylidene]-acetamide], for which the inhibition at 20 µM under setting [1] was determined as 130%.
With `CN1CCC(N(C)C(=O)/C=C2\SC(Nc3c(Cl)cccc3Cl)=NC2=O)C1` (stereo not drawn) [Example 32, 2-[2-(2,6-Dichloro-phenylamino)-4-oxo-4H-thiazol-5-ylidene]-N-methyl-N-(1-methyl-pyrrolidin-3-yl)-acetamide], the IC50 is 89.8 µM.
Consider `CC(C)NC(=O)/C=C1\SC(Nc2c(Cl)cccc2Cl)=NC1=O` [Example 20, 2-[2-(2,6-Dichloro-phenylamino)-4-oxo-4H-thiazol-5-ylidene]-N-isopropyl-acetamide], for which the IC50 was found to be 65.9 µM.
As for `CCCN(CC1CC1)C(=O)/C=C1\SC(Nc2c(Cl)cccc2Cl)=NC1=O` [Example 31, N-Cyclopropylmethyl-2-[2-(2,6-dichloro-phenylamino)-4-oxo-4H-thiazol-5-ylidene]-N-propyl-acetamide], the IC50 was 11.2 µM.
The same measure, in the same setting: the figure for `CNC(=O)/C=C1\SC(Nc2c(Cl)cccc2Cl)=NC1=O` [Example 6, [2-(2,6-Dichloro-phenylamino)-4-oxo-4H-thiazol-5-ylidene]-N-methyl-acetamide] is 3.1 µM and 1.9 µM; for `COC(=O)/C=C1\SC(Nc2c(Cl)cccc2Cl)=NC1=O` [Example 1, [2-(2,6-Dichloro-phenylamino)-4-oxo-4H-thiazol-5-ylidene]-acetic Acid Methyl Ester] it is 4.1 µM.
On the same count and under the same terms, the figure for `CCCNC(=O)/C=C1\SC(Nc2c(Cl)cccc2Cl)=NC1=O` [Example 8, [2-(2,6-Dichloro-phenylamino)-4-oxo-4H-thiazol-5-ylidene]-N-propyl-acetamide] is 35.7 µM and 17.4 µM; for `CN(C)C1CCN(C(=O)/C=C2\SC(Nc3c(Cl)cccc3Cl)=NC2=O)C1` (stereo not drawn) [Example 25, 2-(2,6-Dichloro-phenylamino)-5-[2-(3-dimethylamino-pyrrolidin-1-yl)-2-oxo-ethylidene)-thiazol-4-one] it is 65.1 µM.
In the case of `CC(C)CCC(C)NC(=O)/C=C1\SC(Nc2c(Cl)cccc2Cl)=NC1=O` (stereo not drawn) [Example 37, 2-[2-(2,6-Dichloro-phenylamino)-4-oxo-4H-thiazol-5-ylidene]-N-(1,4-dimethyl-pentyl)-acetamide], the inhibition at 20 µM under setting [1] came out at 34%.
Turning to `CNCCCCCCCCN(C)C(=O)/C=C1\SC(Nc2c(Cl)cccc2Cl)=NC1=O` [Example 34, 2-[2-(2,6-Dichloro-phenylamino)-4-oxo-4H-thiazol-5-ylidene]-N-methyl-N-(8-methylamino-octyl)-acetamide], the IC50 came to 75.6 µM.
Turning to `O=C(/C=C1\SC(Nc2c(Cl)cccc2Cl)=NC1=O)NCCCN1CCCC1` [Example 19, 2-[2-(2,6-Dichloro-phenylamino)-4-oxo-4H-thiazol-5-ylidene]-N-(3-pyrrolidin-1-yl-propyl)-acetamide], the IC50 was 55 µM.
With “N-(1-Benzyl-pyrrolidin-3-yl)-2-[2-(2,6-dichloro-phenylamino)-4-oxo-4H-thiazol-5-ylidene]-N-methyl-acetamide [Example 36]”, under setting [1], the “hBCATc Inhibit % @ 20 μM” value is listed as “Inhibit 29% @ 20 μM”.

The record behind these values is patent US6632831B2, “Branched chain amino acid-dependent aminotransferase inhibitors and their use in the treatment of neurodegenerative diseases” (Pfizer Inc., priority 2001, dated 2003).
